Measurements from ChEMBL document CHEMBL1201862, “PubChem BioAssay data set” (2004).
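Cells were grown in 96-well plates and exposed to each compound for 48 hours at five concentrations; endpoints were interpolated linearly between bracketing concentrations, or set to the highest concentration if not reached. The concentration for 50% growth inhibition is given as GI50.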 Active and inactive are the calls of the source. No stated cut-off is given here; in the data, active = GI50 up to about 1.1 µM and inactive = higher.

Legend:
Experiment in all cases: DTP human tumour cell line panel, 48 h
HCC 2998 = tested on: HCC 2998
HCT-116 = tested on: HCT-116
HL-60 = tested on: HL-60
HOP-62 = tested on: HOP-62
HOP-92 = tested on: HOP-92
HT-29 = tested on: HT-29
K562 = tested on: K562
MDA-MB-231 = tested on: MDA-MB-231
MOLT-4 = tested on: MOLT-4
NCI-H460 = tested on: NCI-H460
OVCAR-4 = tested on: OVCAR-4
OVCAR-8 = tested on: OVCAR-8
PC-3 = tested on: PC-3
RXF 393 = tested on: RXF 393
SF-539 = tested on: SF-539
SK-OV-3 = tested on: SK-OV-3
T47D = tested on: T47D
M14 = tested on: M14
NCI-H522 = tested on: NCI-H522
SR = tested on: SR

Measured: GI50

N=C(N)NCC[C@H](NC(=O)OCCCCCn1ccc(=O)[nH]c1=O)C(=O)O
inactive: HCC 2998 > 100 µM | HCT-116 > 100 µM | HL-60 > 100 µM | HOP-62 > 100 µM | HOP-92 > 100 µM | HT-29 > 100 µM | K562 > 100 µM | MDA-MB-231 > 100 µM | MOLT-4 > 100 µM | NCI-H460 > 100 µM | OVCAR-4 > 100 µM | OVCAR-8 > 100 µM | PC-3 > 100 µM | RXF 393 > 100 µM | SF-539 > 100 µM | SK-OV-3 > 100 µM | T47D > 100 µM

CCOC(=O)/C(=C\NC(N)=S)C(=O)c1ccccc1
inactive: HCC 2998 > 100 µM | HCT-116 > 100 µM | HL-60 > 100 µM | HOP-62 > 100 µM | HOP-92 > 100 µM | HT-29 > 100 µM | M14 > 100 µM | MDA-MB-231 > 100 µM | MOLT-4 > 100 µM | NCI-H460 > 100 µM | OVCAR-4 > 100 µM | OVCAR-8 > 100 µM | RXF 393 > 100 µM | SF-539 > 100 µM | SK-OV-3 > 100 µM | T47D > 100 µM

CC(O)CCNC(=O)Nc1c(C(F)(F)F)cc(-c2ccccc2)[nH]c1=O (configuration not stated)
inactive: HCC 2998 > 100 µM | HCT-116 > 100 µM | HL-60 67.9 µM | HOP-62 > 100 µM | HOP-92 > 100 µM | HT-29 > 100 µM | K562 > 100 µM | M14 > 100 µM | MDA-MB-231 > 100 µM | MOLT-4 > 100 µM | NCI-H460 > 100 µM | NCI-H522 > 100 µM | OVCAR-4 > 100 µM | OVCAR-8 > 100 µM | PC-3 > 100 µM | RXF 393 > 100 µM | SK-OV-3 > 100 µM | T47D > 100 µM

COc1cc(/C=C2\CCC(C)/C(=C\c3cc(OC)c(OC)c(OC)c3)C2=O)cc(OC)c1OC (configuration not stated)
inactive: HCT-116 3.32 µM | HOP-62 3.63 µM | HOP-92 > 100 µM | HT-29 3.21 µM | K562 2.69 µM | M14 1.96 µM | MDA-MB-231 8.41 µM | OVCAR-8 2.4 µM | PC-3 2.7 µM | RXF 393 2.55 µM | SK-OV-3 10.5 µM | T47D 8.95 µM

c1ccc(C2(c3ccccc3)S/C(=C3/SC(c4ccccc4)(c4ccccc4)c4ccccc43)c3ccccc32)cc1
inactive: HCC 2998 > 100 µM | HCT-116 > 100 µM | HL-60 > 100 µM | HOP-62 > 100 µM | HOP-92 > 100 µM | HT-29 > 100 µM | K562 > 100 µM | M14 > 100 µM | MDA-MB-231 > 100 µM | MOLT-4 > 100 µM | NCI-H460 > 100 µM | NCI-H522 > 100 µM | OVCAR-4 > 100 µM | OVCAR-8 > 100 µM | PC-3 > 100 µM | RXF 393 > 100 µM | SF-539 > 100 µM | SK-OV-3 > 100 µM | SR > 100 µM

CNC(=O)ON(C(C)=O)C(=O)NC [CARACEMIDE]
inactive: HCC 2998 > 100 µM | HCT-116 45 µM | HOP-62 140 µM | HOP-92 17.9 µM | M14 9.55 µM | NCI-H460 78.7 µM | NCI-H522 21.5 µM | OVCAR-4 63.8 µM | OVCAR-8 78.3 µM | PC-3 26.5 µM | RXF 393 34.3 µM | SF-539 64.4 µM | SK-OV-3 106 µM | SR 28.1 µM | T47D 9.38 µM

COc1c(C)c(C/C=C(\C)CC/C=C(\C)CCC=C(C)C)c(OC)c(OC)c1OC
inactive: HCC 2998 54.6 µM | HCT-116 > 100 µM | HOP-62 > 100 µM | HOP-92 > 100 µM | HT-29 76.2 µM | K562 > 100 µM | M14 > 100 µM | MDA-MB-231 > 100 µM | MOLT-4 91.4 µM | NCI-H460 > 100 µM | NCI-H522 41.3 µM | OVCAR-4 > 100 µM | OVCAR-8 > 100 µM | PC-3 > 100 µM | RXF 393 44 µM | SF-539 > 100 µM | SK-OV-3 > 100 µM | SR 66.4 µM

CC12CC(c3ccccc3O1)C(C(=O)Nc1ccc(F)cc1)C(=O)N2 (configuration not stated)
inactive: HCC 2998 > 100 µM | HCT-116 > 100 µM | HL-60 29.6 µM | HOP-62 > 100 µM | HT-29 89.9 µM | K562 47.9 µM | M14 > 100 µM | MOLT-4 21.1 µM | NCI-H460 89.7 µM | NCI-H522 63.2 µM | OVCAR-4 51.9 µM | OVCAR-8 36 µM | PC-3 > 100 µM | SF-539 > 100 µM | SK-OV-3 > 100 µM | SR 73.1 µM | T47D 33.5 µM
